Data taken from PubChem BioAssay (NCI).
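Step 1: Grow cells in 96-well plates. Step 2: Expose to compound for 48 hours at 5 concentrations. Step 3: Interpolate endpoints linearly; if unreached, use highest concentration. The concentration for full growth arrest is given as TGI.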

Columns and labels:
Assay in all cases: NCI-60 cell line screen, 48 h
HCC-2998 colon = tested on: HCC-2998 colon
OVCAR-5 ovarian = tested on: OVCAR-5 ovarian
IGROV1 ovarian = tested on: IGROV1 ovarian
HOP-92 NSCLC = tested on: HOP-92 NSCLC
OVCAR-8 ovarian = tested on: OVCAR-8 ovarian
LOX IMVI melanoma = tested on: LOX IMVI melanoma
MDA-MB-435 = tested on: MDA-MB-435
PC-3 prostate = tested on: PC-3 prostate
A498 renal = tested on: A498 renal
RXF 393 renal = tested on: RXF 393 renal
SK-MEL-28 melanoma = tested on: SK-MEL-28 melanoma
MALME-3M melanoma = tested on: MALME-3M melanoma
HCT-15 colon = tested on: HCT-15 colon
MDA-N = tested on: MDA-N
CAKI-1 renal = tested on: CAKI-1 renal
SF-295 CNS = tested on: SF-295 CNS
HCT-116 colon = tested on: HCT-116 colon
HOP-62 NSCLC = tested on: HOP-62 NSCLC
HT29 colon = tested on: HT29 colon
SF-539 CNS = tested on: SF-539 CNS
TK-10 renal = tested on: TK-10 renal
NCI-H460 lung = tested on: NCI-H460 lung
SN12C renal = tested on: SN12C renal
NCI-H522 lung = tested on: NCI-H522 lung
BT-549 breast = tested on: BT-549 breast
UO-31 renal = tested on: UO-31 renal
SR leukemia = tested on: SR leukemia
SK-MEL-2 melanoma = tested on: SK-MEL-2 melanoma
HL-60(TB) leukemia = tested on: HL-60(TB) leukemia
NCI/ADR-RES ovarian = tested on: NCI/ADR-RES ovarian
T-47D breast = tested on: T-47D breast
M14 melanoma = tested on: M14 melanoma
OVCAR-4 ovarian = tested on: OVCAR-4 ovarian
EKVX NSCLC = tested on: EKVX NSCLC
MCF7 breast = tested on: MCF7 breast
DU-145 prostate = tested on: DU-145 prostate
COLO 205 colon = tested on: COLO 205 colon
HS 578T breast = tested on: HS 578T breast
KM12 colon = tested on: KM12 colon
K-562 leukemia = tested on: K-562 leukemia
SW-620 colon = tested on: SW-620 colon
ACHN renal = tested on: ACHN renal
NCI-H226 lung = tested on: NCI-H226 lung
SK-MEL-5 melanoma = tested on: SK-MEL-5 melanoma
786-0 renal = tested on: 786-0 renal
NCI-H23 lung = tested on: NCI-H23 lung
A549 NSCLC = tested on: A549 NSCLC
SNB-19 CNS = tested on: SNB-19 CNS
MOLT-4 leukemia = tested on: MOLT-4 leukemia
SF-268 CNS = tested on: SF-268 CNS
SK-OV-3 ovarian = tested on: SK-OV-3 ovarian
RPMI-8226 leukemia = tested on: RPMI-8226 leukemia
UACC-62 melanoma = tested on: UACC-62 melanoma
U251 CNS = tested on: U251 CNS
UACC-257 melanoma = tested on: UACC-257 melanoma
OVCAR-3 ovarian = tested on: OVCAR-3 ovarian
CCRF-CEM leukemia = tested on: CCRF-CEM leukemia

Measured: TGI

Cn1cc(NC(=O)c2cc(NC(=O)CN=C(N)N)cn2C)cc1C(=O)NCCC(=N)N
> 100 µM: all assays above
